For test [1], the target named is T1, Sfβgly (GH1 β-glucosidase from Spodoptera frugiperda) (Spodoptera frugiperda, UniProt O61594).
T1 construct: recombinant, E. coli BL21(DE3), vector pET46, Ni-NTA purified; secreted digestive midgut enzyme; catalytic residues E187 and E399
The test can be described thus: initial-rate kinetics, Lineweaver-Burk plots, p-nitrophenolate release. Type of test: biochemical. Particulars: competitive; also a substrate; substrate p-nitrophenyl β-glucoside; 100 mM phosphate pH 6.0, 30 °C.

Test [2] has as its target T1, Sfβgly (GH1 β-glucosidase from Spodoptera frugiperda). The test can be described thus: initial-rate kinetics, Lineweaver-Burk and secondary plots, p-nitrophenolate release. Type of test: biochemical. The text has this:
initial-rate kinetics, Lineweaver-Burk and secondary plots, p-nitrophenolate release on Sfβgly (GH1 β-glucosidase from Spodoptera frugiperda)

Molecules are shown by their SMILES.

T1 sequence (O61594 21-509): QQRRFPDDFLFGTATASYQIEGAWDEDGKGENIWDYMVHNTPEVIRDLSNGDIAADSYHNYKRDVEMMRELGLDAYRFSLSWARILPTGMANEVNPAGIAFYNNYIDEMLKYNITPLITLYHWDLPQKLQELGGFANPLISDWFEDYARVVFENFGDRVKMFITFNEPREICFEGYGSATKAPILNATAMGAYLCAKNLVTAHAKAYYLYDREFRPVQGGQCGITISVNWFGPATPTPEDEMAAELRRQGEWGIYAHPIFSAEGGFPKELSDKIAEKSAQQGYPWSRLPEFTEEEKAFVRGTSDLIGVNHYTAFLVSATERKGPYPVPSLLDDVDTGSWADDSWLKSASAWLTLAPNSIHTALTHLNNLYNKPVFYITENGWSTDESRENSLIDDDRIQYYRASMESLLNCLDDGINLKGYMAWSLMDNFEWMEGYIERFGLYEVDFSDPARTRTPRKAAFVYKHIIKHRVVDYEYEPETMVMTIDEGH

Take `OC[C@H]1O[C@@H](O[C@H]2[C@H](O)[C@@H](O)C(O)O[C@@H]2CO)[C@H](O)[C@@H](O)[C@@H]1O` (some centres unmarked) [C2, cellobiose]: the inhibitory constant (Ki) – broadly, a measure of affinity in units of concentration, obtained from inhibition or displacement – in test [1] came to 10 mM. The compound `c1c[nH]cn1` [imidazole] yielded an inhibition constant Ki in test [2] of 15.3 ± 0.3 mM.

The values above are taken from PMC10153361, “Mechanism of imidazole inhibition of a GH1 β‐glucosidase” (FEBS Open Bio, 2023).
